Assay results: patent publication US5739274A, “Active component of parathyroid hypertensive factor” (CV Technologies, Inc., priority 1995, dated 1998)
Each block holds one molecule with its values, some of them ahead of it.

Tests used:
[1] = system: Na+ K+ ATPase; test: Na+ K+ ATPase activity as ouabain-sensitive 86Rb uptake in rat tail artery; assay type: cell-based
Protocol: Na^+ K^+ ATPase activity was measured as the ouabain-sensitive ^86 Rb uptake in rat tail artery using the method of Deth et al. Briefly, male Sprague-Dawley rats weighing 300 to 400 g were sacrificed by pentobarbital overdose, and the tail arteries removed and cut into strips. The strips were rinsed in ice-cold Krebs solution (composition: NaCl, 117 mM; KCl, 5 mM; NaHCO3, 27 mM, NaH2 PO4, 1 mM, MgSO4, 1.2 mM, CaCl2, 1.25 mM, glucose 11.0 mM) and incubated in oxygenated (95% O2, 5% CO2) Krebs buffer at 37° C. for 2 hours. For the final 30 minutes, Krebs solution with no KCl and 122 mM NaCl was used to sodium-load the tissues. Following this incubation, the strips were transferred to tubes containing Krebs buffer and 1 μCi of ^86 Rb, giving a final […] concentration of 5 mM. Various incubation media consisting of the above-described incubation solution plus 30% SHR plasma (Rb concentration kept constant in all cases) plus 1 mM ouabain and incubation plus 30% plasma plus 1 mM ouabain. Strips were incubated in the respective solutions for 18 minutes, then rinsed in four changes of ice-cold Krebs solution, blotted, weighed and counted in a gamma counter. The effect of the various incubations on ^86 Rb uptake was analyzed by ANOVA using the Student-Neuman-Keuuls test for post-hoc comparisons. All results are expressed as mean±SD.

[2] = system: SD rats; test: Blood pressure bioassay, bolus injection into anesthetized normotensive SD rats; assay type: in vivo; settings: normotensive rat, as in Example 1
Protocol: SD rats were anesthetized using Na pentobarbital, (50 mg/kg, i.p.) and catheters were inserted in the jugular vein for injection of plasma and drugs and in the carotid artery for measurement of b.p.
The chloroform methanol extract of SHR plasma was redissolved in saline and administered by bolus injection.

[3] = system: CaM (calmodulin)-Dependent PDE; test: Activation of CaM-dependent PDE (cGMP-PDE activity); assay type: biochemical
Protocol: The measurement of cGMP-PDE activity is based on the conversion of [^3 H]cGMP into [^3 H]GMP and its subsequent hydrolysis by snake venom into [^3 H]Guanosine (Wallace, et al., 1983; Wells, et al., 1975). The testing substance was added to a mixture containing 60 mM TES, 3 mM MgCl2, 0.8 mg/ml BSA, 25 μM EGTA, 50 uM CaCl2, 1 mM DTT, 0.5 μM cGMP and [^3 H]-cGMP (10-15×10^3 cpm) at a final pH of 7.5 for a total volume of 200 μl. The reaction was started by the addition of a fixed quantity of CaM-deficient PDE (Sigma Chemical Co., St. Louis, Mo.). Incubation carried out for 15 mins at 30° C., was terminated by boiling for 5 mins. The second reaction was initiated by the addition of 20 μl (10 mg/ml) of snake venom (Crotalus atrox). After 10 mins., the incubation was stopped with 700 μl of a second termination medium containing 0.1 mM guanosine. The total incubation mixture was then applied onto a column of QAE-Sephadex A-25 (formate form) to separate labeled nucleotides from the labeled nucleosides formed. The resin was eluted with 4 ml of 20 mM ammonium formate (pH 6.5), and the radioactivity of the eluate containing [^3 H]guanosine was determined in a liquid scintillation counter. A standard curve of PDE stimulation by CaM was obtained by the addition of different concentrations of purified bovine heart CaM (Sigma) (0.1-200 ng/tube). […]

[4] = system: vascular smooth muscle cells isolated from rat tail artery; test: Intracellular calcium determination (fura-2); assay type: cell-based; settings: 45 mins incubation before KCl; 30 mM KCl for pure PHF, 15 mM KCl for FMOC-PHF
Protocol: All studies were performed in vascular smooth muscle cells isolated from Sprague Dawley (SD) rat tail artery as described in Wang, et al. (Wang, et al. 1989) with modification. Male SD rats (100-200 g body weight) were anaesthetized with sodium pentobarbital (65 mg/kg body weight intraperitoneally) and the tail artery dissected out and immersed in cold Ca and Mg free Hanks' balanced salt solution (HBSS, Gibco). The blood was washed off from the artery and the connective tissue was then removed. Using a dissecting microscope inside a laminar flow hood, the artery was cut into pieces of about 1.5 cm and placed in 4° C. Ca free HBSS for 30 minutes. […]
Primary cultured vascular smooth muscle cells were incubated for 45 minutes in DMEM containing 5 μM fura-2 acetoxymethyl ester (Molecular Probes, INC.) at room temperature. […] After about 5 min, the coverslip with attached cells was placed in a Sykes-Moore chamber of 1-ml volume on the stage of an inverted microscope, and fluorescence measurements were made with a Fluoroplex III sepctrofluorometer (Tracor Northern). […] R is the ratio of fluorescence in the sample excited at […] which represents intracellular free calcium concentration. […]
The monolayer cells in 1 mM Ca^2+ 5K buffer were challenged by testing substances and the change of R was recorded for a certain period of time. […]

[5] = system: rat tail artery; test: Blood vessel tension measurement, norepinephrine-induced tension in helical strips; assay type: cell-based; settings: 40 mins incubation before second NE doses
Protocol: The method was essentially similar to the one described by Pang, et al. (1980). Sprague-Dawley rats of either sex were anesthetized with pentobarbital (50 mg/kg) and the tail artery or aorta were isolated and removed and then placed in KHS buffer (115 mM NaCl, 5 mM KCl, 2.1 mM CaCl2, 1.2 mM MgSO4, 1.2 mM NaH2 PO4, 25 mM NaHCO3, and 11 mM glucose) oxygenated with 95% O2, 5% CO2. The vessels were cut helically and strips of approximately 1.5 cm were secured in a Sawyer-Bartlestone chamber containing KHS. The force development of the helical strips was measured with a Grass FT 0.03 force displacement transducer and recorded on a Grass Model 79D polygraph. Isolated tail artery helical strips were equilibrated for 1 hour prior to addition of any vasoconstricting agents. The strips were preloaded with a resting tension of 0.7 g and incubated at 37° C. (Pang et al., 1985). In all cases, the responsiveness of strips was first tested by adding 60 mM KCl and only responsive tissue was used in experiments. There were two series of experiments.
Two consecutive dose responses to NE in tension development with 1 hour interval were compared. The tissue was washed out after adding first accumulated doses of NE and incubated in normal KHS buffer for 20 mins. The control solvent or testing substances (PHF or LP compounds) were then applied and incubated for another 40 mins. […]

[6] = biological target: T1, L-type Ca2+ channel (Rattus norvegicus, UniProt P22002); test: Ca2+ channel study, whole cell patch clamp in single VSMC; assay type: cell-based; settings: IBMX applied after FMOC-PHF
T1 construct: single VSMC isolated form rat tail artery by using the whole cell version of the patch clamp technique; endogenous in cells; host or cells: freshly isolated vascular smooth muscle cells of rat tail artery
Protocol: Ca^2+ channel activity was determined in single VSMC isolated form rat tail artery by using the whole cell version of the patch clamp technique (Hamill et al., 1981). Whole cell Ca^2+ current measurements were carried out by using an Axopatch-1B patch clamp amplifier (Axon Instruments). Patch micropipettes were pulled from borosilicate thin wall glass capillary tubes (OD 1.2 mm, ID 0.9 mm, FHS, Brunswick, Maine, USA) with a two stage micropipette puller (Narishige, PP83, Japan). The micropipettes were fire polished using a microforge (Leitz, Wetzlar, Germany). The tip diameter was approximately 1 μm with a resistance of 2-8 Mega Ohms. The cell attached to the bottom of a 3 cm Petri dish and was bathed in the medium containing 110 mM Tris, 5 mM CsCl, 20 mM HEPES, 30 mM glucose, 20 mM BaCl2, and 0.5 μM TTX. The polished pipette filled with a solution containing 75 mM Cs2 -aspartate, 10 mM EGTA, 2 mM ATP, 5 mM MgCl2, 5 mM K-pyruvate, 5 mM K-succinate, 25 mM glucose, 15 mM HEPES, 5 mM creatine phosphate-Na2, and 50 units/ml creatine kinase was placed against the cell membrane using a Narishige hydraulic micromanipulator. Gentle suction was applied via a tubing attached to the pipette holder. […] The currents were monitored using a digital oscilloscope (Nicolet Instrument Co., Madison, Wis., U.S.A.) and filtered at 3 KHz with a low pass filter (Axon Instruments, Foster City, Calif., U.S.A.). […]

T1 sequence (P22002 whole entry): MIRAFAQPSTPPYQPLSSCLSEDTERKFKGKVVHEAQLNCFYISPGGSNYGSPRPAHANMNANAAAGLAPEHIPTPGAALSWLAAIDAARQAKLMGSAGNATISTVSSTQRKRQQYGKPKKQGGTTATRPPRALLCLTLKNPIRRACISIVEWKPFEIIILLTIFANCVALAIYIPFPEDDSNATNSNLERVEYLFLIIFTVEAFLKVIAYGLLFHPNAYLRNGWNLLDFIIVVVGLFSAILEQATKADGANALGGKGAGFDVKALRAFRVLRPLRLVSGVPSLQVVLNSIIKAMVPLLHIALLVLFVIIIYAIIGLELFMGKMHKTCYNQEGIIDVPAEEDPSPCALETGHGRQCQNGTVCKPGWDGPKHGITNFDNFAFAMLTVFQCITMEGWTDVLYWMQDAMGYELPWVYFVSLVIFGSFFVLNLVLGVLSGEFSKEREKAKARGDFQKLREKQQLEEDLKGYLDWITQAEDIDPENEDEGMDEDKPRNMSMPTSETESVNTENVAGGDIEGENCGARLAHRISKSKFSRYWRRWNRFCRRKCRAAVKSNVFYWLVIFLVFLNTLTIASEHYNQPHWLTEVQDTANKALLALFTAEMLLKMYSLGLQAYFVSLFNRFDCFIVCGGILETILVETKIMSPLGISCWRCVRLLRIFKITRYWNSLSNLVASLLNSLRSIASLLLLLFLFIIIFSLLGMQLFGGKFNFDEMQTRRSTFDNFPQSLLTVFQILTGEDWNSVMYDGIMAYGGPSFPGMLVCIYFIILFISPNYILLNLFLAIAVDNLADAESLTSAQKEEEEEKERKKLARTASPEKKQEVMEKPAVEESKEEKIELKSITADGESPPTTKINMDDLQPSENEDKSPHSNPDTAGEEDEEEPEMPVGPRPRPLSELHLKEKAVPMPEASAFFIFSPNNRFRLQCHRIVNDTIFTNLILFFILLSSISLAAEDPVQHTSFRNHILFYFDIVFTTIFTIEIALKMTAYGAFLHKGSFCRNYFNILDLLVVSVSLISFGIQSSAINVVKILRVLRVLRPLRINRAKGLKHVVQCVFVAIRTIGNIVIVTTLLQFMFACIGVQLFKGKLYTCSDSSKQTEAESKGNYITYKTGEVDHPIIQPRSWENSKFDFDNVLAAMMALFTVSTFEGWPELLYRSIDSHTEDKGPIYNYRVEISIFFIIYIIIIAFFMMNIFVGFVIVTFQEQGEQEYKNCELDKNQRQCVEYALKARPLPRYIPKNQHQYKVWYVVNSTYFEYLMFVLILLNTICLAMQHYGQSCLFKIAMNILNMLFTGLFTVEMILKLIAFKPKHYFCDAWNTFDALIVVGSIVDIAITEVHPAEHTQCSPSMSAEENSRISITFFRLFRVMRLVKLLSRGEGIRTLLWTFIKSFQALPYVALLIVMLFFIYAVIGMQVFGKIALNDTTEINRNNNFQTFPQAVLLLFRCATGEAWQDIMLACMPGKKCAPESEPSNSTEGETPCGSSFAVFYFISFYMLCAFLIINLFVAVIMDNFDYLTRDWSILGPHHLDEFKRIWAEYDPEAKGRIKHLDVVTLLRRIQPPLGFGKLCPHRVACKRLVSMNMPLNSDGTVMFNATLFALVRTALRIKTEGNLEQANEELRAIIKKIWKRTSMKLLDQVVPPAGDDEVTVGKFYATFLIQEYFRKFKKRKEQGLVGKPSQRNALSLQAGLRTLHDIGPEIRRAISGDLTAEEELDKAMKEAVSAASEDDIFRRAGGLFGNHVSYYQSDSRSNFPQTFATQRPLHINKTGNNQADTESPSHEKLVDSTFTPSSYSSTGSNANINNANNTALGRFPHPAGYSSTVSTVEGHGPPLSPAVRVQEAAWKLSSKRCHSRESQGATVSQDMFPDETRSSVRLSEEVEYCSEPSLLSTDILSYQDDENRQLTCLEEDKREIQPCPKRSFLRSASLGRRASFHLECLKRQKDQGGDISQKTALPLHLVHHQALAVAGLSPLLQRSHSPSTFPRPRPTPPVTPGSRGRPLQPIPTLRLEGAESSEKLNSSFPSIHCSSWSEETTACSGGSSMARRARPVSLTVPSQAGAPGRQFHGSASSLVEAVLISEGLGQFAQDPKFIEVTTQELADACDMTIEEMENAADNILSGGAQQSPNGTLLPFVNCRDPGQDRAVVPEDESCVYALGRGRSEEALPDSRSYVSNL
T1 sequence (P54290 25-944 partner limits assumed): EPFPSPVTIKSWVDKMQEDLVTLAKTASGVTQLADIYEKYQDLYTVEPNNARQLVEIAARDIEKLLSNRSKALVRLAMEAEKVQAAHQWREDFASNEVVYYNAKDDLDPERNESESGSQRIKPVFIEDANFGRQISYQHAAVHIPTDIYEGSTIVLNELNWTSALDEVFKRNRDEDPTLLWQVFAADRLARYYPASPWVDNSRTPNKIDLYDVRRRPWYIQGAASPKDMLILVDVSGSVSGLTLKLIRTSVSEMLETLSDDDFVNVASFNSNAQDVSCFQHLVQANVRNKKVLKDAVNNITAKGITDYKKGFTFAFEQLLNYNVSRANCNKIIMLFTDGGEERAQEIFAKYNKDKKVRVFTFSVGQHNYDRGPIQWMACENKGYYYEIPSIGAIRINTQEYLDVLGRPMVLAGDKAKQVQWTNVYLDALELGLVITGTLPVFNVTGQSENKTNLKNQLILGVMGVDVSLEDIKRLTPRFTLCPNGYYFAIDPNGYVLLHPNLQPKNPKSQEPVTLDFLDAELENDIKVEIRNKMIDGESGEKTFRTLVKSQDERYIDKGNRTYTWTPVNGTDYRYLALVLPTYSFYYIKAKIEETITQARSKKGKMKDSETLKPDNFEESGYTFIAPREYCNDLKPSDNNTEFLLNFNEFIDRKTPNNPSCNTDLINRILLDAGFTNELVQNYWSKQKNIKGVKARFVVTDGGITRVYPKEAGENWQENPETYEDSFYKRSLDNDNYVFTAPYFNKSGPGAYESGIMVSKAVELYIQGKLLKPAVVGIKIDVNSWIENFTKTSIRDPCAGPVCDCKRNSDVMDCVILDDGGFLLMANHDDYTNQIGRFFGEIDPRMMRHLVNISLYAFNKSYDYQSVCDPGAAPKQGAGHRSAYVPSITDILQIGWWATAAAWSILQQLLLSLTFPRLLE
T1 sequence (P54290 945-1091 partner limits assumed): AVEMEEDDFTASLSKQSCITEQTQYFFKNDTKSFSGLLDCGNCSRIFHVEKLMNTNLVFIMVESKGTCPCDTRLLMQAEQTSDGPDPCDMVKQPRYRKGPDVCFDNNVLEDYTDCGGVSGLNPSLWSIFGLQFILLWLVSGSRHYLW
T1 sequence (P54287 whole entry partner): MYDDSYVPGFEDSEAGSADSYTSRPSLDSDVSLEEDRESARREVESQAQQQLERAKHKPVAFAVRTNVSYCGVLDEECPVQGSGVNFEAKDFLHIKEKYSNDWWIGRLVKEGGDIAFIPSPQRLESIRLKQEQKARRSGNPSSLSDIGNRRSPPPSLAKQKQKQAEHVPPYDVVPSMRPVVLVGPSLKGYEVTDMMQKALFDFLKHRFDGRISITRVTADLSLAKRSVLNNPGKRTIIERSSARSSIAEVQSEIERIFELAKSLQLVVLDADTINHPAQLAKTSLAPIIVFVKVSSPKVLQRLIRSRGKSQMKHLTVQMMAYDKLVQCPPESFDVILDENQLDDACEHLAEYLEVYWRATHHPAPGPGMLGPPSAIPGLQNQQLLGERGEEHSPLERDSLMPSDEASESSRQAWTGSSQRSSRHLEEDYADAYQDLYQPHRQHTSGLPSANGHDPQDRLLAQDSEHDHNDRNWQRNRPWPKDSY

- increase in 86Rb uptake ([1]; 30 micromolar, p<0.01): 46%
- effect on phosphodiesterase (PDE) activity [3]: stimulated PDE activity
Molecule: Lysophosphatidyl serine
- hypertensive response (blood pressure in normotensive rats) [2]: delayed sustained increase in blood pressure

Molecule: lysophosphatidyl choline [LPC]
- effect on intracellular calcium ([Ca2+]i increment induced by KCl) [4]: significantly augments the increase in intracellular calcium induced by KCl

- increase in 86Rb uptake ([1]; 600 micromolar, p<0.05): 31%
Molecule: Lysophosphatidyl inositol
- effect on norepinephrine induced tension development [5]: potentiations of norepinephrine induced tension
- hypertensive response (blood pressure in normotensive rats) [2]: delayed, sustained increase in blood pressure

- effect on calcium channel current increased by FMOC-PHF [6]: reversal
Molecule: CC(C)Cn1c(=O)n(C)c(=O)c2[nH]cnc21 [IBMX]
